# Results taken from US9592305B2, “Compositions of jasmonate compounds and methods of use” (Nanocare Technologies, Inc., priority 2011, dated 2017).
# Tests used:
# [1] = system: VEGF; assay: VEGF production by HUVEC, ELISA of culture supernatants; format: cell-based, human
# Description: (§1) Cell lines used: non-neoplastic cells derived from human umbilical cord endothelial (HUVEC) and neoplastic cells of melanoma, B16F10 murine tumor. The HUVECs were provided by Dra. Dulcinea Saes Parra Abdalla, Department of Clinical and Toxicological Analyses, FCF-USP's and B16F10 murine melanoma cells, by Prof. Marcia Cominetti Department of Physiology and Molecular Biology of UFSCar. Both strains were grown in RPMI with 10% fetal calf serum. […] The preliminary investigation of the effect on angiogenesis was also made in vitro with HUVEC. The measures were undertaken to study the cell cycle by flow cytometry (propidium iodide and acridine orange) the assessment of mitochondrial activity by confocal microscopy (Mitotracker Red), and measurement of VEGF and PGE2 production by HUVEC, we performed cell culture supernatants by ELISA with commercial antibodies.
# [2] = system: HUVEC; assay: MTT cytotoxicity and growth curves in endothelial cells; format: cell-based, human
# [3] = system: B16F10 murine melanoma cells; assay: MTT cytotoxicity and growth curves in murine melanoma cells; format: cell-based; conditions: cultures of murine melanoma
# [4] = Degradation in vivo (applicant's unpublished studies)
# [5] = system: HUVEC; assay: Mitochondrial activity of endothelial cells, Mitotracker Red confocal microscopy; format: cell-based, human; conditions: low-density plating
# Description: FIGS. 15A-15F each show effect of MDJ on the mitochondrial activity of endothelial cells after 4 h of exposure in low-density plating on glass coverslips 25 mm in 24-well plates, as measured by Mitotracker red fluorescence confocal microscopy, increased 80× (40×+2× digital zoom). The calibration parameters were maintained for all measures. […] Concentrations equal to or greater than 1 mM lead to a decrease in the intensity/area of marking.
# FIG. 16: Effect of MDJ on the mitochondrial activity of endothelial cells after 24 hours exposure in low-density plating on glass coverslips 25 mm in 24-well plates, as measured by Mitotracker Red fluorescence in confocal microscope, 40× magnification. The calibration parameters were maintained for all measurements, each point is the average of six independent measurements.
# Cell lines used: non-neoplastic cells derived from human umbilical cord endothelial (HUVEC) and neoplastic cells of melanoma, B16F10 murine tumor. The HUVECs were provided by Dra. Dulcinea Saes Parra Abdalla, Department of Clinical and Toxicological Analyses, FCF-USP's and B16F10 murine melanoma cells, by Prof. Marcia Cominetti Department of Physiology and Molecular Biology of UFSCar. Both strains were grown in RPMI with 10% fetal calf serum. […] The preliminary investigation of the effect on angiogenesis was also made in vitro with HUVEC. […]
# [6] = system: HUVEC; assay: Cell cycle by flow cytometry (propidium iodide, acridine orange) in HUVEC; format: cell-based, human
# Description: FIG. 13: Effect of MDJ on the cell cycle in HUVEC after 18 h of exposure in vitro. The concentrations used in each test are shown in graphics measures cell cycle were performed on a BD FACScalibur equipment, after labeling with propidium iodide simple. The staining with acridine orange served as a control of the process of apoptosis.
# as §1
# [7] = Toxicity observations in the MNNG colon tumor study (histopathology, hematology, clinical chemistry); conditions: mouse, in vivo, ip
# Description: (§2) Briefly, Balb/c mice were treated by intrarectal instillations of the carcinogen N-methyl-N′-nitro-N-nitrosoguanidine (MNNG), twice a week for 2 weeks (XX), and were sacrificed 24 weeks after the beginning of the treatment. Ten days before the end of the experiment, the animals of group A (n=10) were treated with daily i.p. injections of cyclodextrin-carried MDJ (10 μL of saline solution with 1 millimolar MDJ) for every 60 grams of body weight. The animals of group B (n=10) were treated by daily intrarectal instillations of cyclodextrin-carried MDJ, at the same dosage. The group C (n=10) was treated with MNNG and with daily i.p. injections of MDJ (diluted at 10% in 100 μL of saline). The animals of the group D were treated with MNNG and by daily intrarectal instillations of MDJ, at the same dosage. The control group E was treated with MNNG alone. The control groups F and G were treated with saline and cyclodextrin-carried MDJ, i.p. and i.r, respectively. The control groups H and I received saline and MDJ, i.p. and i.r, respectively. The dosages of cyclodextrin-carried MDJ and MDJ were based on previous animal pilot studies.
# Colon tumor (T), adjacent non-tumor site (NT), macroscopically normal colonic mucosa from non-tumor rats (N) in the same treatment group were obtained. […] Standard hematology and clinical chemistry parameters were also monitored.
# [8] = system: PGE2; assay: PGE2 production by HUVEC, ELISA of culture supernatants; format: cell-based, human; conditions: 1×10^4 cells/mL and 2×10^5 cells/mL plating
# Description: as §1
# [9] = system: B16F10 murine melanoma; assay: CAM model inoculated with B16F10 murine melanoma; format: in vivo
# Description: After the opening and closing of windows all eggs were replaced in the incubator, with the same initial conditions and maintained for a further seven days, typically. In this interval procedures were carried out for tests of angiogenesis or for research on tumor growth in vivo. The observation of angiogenesis in eggs inoculated with tumor cells followed virtually the same test model of angiogenesis. Exposure to pure MDJ (cis/trans 96% pure from Sigma) or cyclodextrin-carried MDJ made in Example 3 above was performed on day 8, with the remaining eggs in the incubator until day 14. The inoculation with the melanoma cells was performed on day 4, eggs received MDJ pure or cyclodextrin-carried MDJ on the 8th day and remained incubated up to 14 days. During the development of the protocol, the time of inoculation and treatment were adjusted. Care during the collection and to obtain the images were standardized for all experiments.
# The typical inoculum was 2×10^4 cells per egg, in a volume of culture medium less than […]. Melamona growth was accompanied by visual inspection of pigmented mass formation on the CAM, the magnifying glass and microscope. […]
# Eggs used were measured by sampling and the average volume of 60 mL was maintained throughout the period of testing with a standard deviation below 10%. […] The tests of viability were monitored for up to 10 days. […]
# [10] = system: CAM blood vessels; conditions: in vivo
# Description: For the tests with eggs, egg whites were used Gallus gallus incubated in a thermostated incubator at controlled temperature and humidity. The incubation was performed with and without eggs lying giragem. A mark on the upper surface of the bark was used to control this procedure. The eggs were opened on the fourth day of incubation, after careful cleaning of the skin with cotton wool soaked in 70% alcohol. The opening was performed in laminar flow, keeping all your eggs in the same position in which they were hatched, supported on a plastic holder and marked on the upper surface. The experimental procedure was adapted and refined for the project, drawing on the first half of the twentieth century. The description of the method developed
# After the opening and closing of windows all eggs were replaced in the incubator, with the same initial conditions and maintained for a further seven days, typically. […]
# After brief fixation, the hull was breached and the embryo inert placed on a petri dish. […] In each trial, the image was captured from the fund, kept the lighting and color adjustments in order to standardize the images of the analyzed material. […]
# Each region of the same sample was imaged in bright field and dark field, for better observation of details. The growth of the vascular network was analyzed with the program Image J by processing the images in bright field binary images. […]
# [11] = system: chemically induced colon tumors; assay: Chemically (MNNG) induced colon tumors in mice: tumor size, PCNA, apoptotic index, CASPASE-3; format: in vivo, Balb/c mice
# Description: The effect of cyclodextrin-carried MDJ made in Example 3 above was studied in an experimental model of colonic cancer in mice. Apoptosis and cell proliferation, the two most important events related to tumor growth were investigated. The apoptosis and proliferation indexes of colon tumor, adjacent non-cancer tissues and normal colonic tissues were determined. Apoptosis was quantified by apoptotic nuclei counting and CASPASE-3 immunostaining, whereas proliferation was determined by PCNA immunostaining.
# The animals were maintained in agreement with the guidelines of Committee on Care and Uses of Laboratory Animals of the National Research Council of the National Institutes of Health (USA). The mice were fed with food and water ad libitum and maintained on hardwood bedding under a 12-h light/dark cycle. Animals were weighed weekly during the experiments. All experiments were approved by the USP Animal Ethics Committee.
# as §2
# Colon tumor (T), adjacent non-tumor site (NT), macroscopically normal colonic mucosa from non-tumor […] (N) in the same treatment group were obtained. Immunohistochemistry was performed to study cell proliferation by the Proliferating cellular antigen (PCNA) staining and to analyze cell apoptosis by both the apoptotic bodies counting and by the CASPASE-3 staining. Results were expressed and PCNA labeling index (PCNA-Li), Apoptotic Index (AI) and CASPASE-3 Labeling Index (CASPASE-3-Li). Standard hematology and clinical chemistry parameters were also monitored.
# Apoptosis was determined by apoptotic nuclei counting. Sections were stained with hematoxylin and eosin to evaluate the number of apoptotic cells per section. The criteria used to recognize apoptotic cells were: shrunk size, loss of contact with surrounding tissues (at times forming the classically described halo) and nuclear condensation as previously described (Yu et al., Gut 2002, 51:480-484). At least 1 000 cells were counted in five random fields and the percentage of cells with apoptotic features was then calculated (apoptotic index or AI). The apoptotic nuclei counts were compared with findings obtained by CASPASE-3 immunostaining in 30 randomly selected areas. A strong correlation between apoptotic nuclei count and CASPASE-3 results was found (r=0.83, P<0.001).
# Proliferation was assayed by immunoperoxidase staining for Proliferating Cell Nuclear Antigen (PCNA) as described previously. Briefly, paraffin-embedded sections from each specimen were labeled with PCNA antibody, after microwave antigen retrieval in citrate buffer. Negative controls were run by replacing the primary antibody with non-immune serum. The slides were developed in 3,3-diaminobenzidine tetrahydrochloride (DAB, Dako, Denmark) and counter-stained with Mayer haematoxylin. […]
structure (smiles),measurement,setting,value
"CCCCCC1C(=O)CCC1CC(=O)OC (centres unmarked) [MDJ, methyl 2-(3-oxo-2-pentylcyclopentyl)acetate]","VEGF, pg/mL (2 × 10^6 cells, 4 h)",[1]; MDJ 1 nM,566 ± 31 pg/mL
same,"VEGF, pg/mL (2 × 10^6 cells, 4 h)",[1]; MDJ 10 uM,319 ± 12 pg/mL
same,"VEGF, pg/mL (2 × 10^6 cells, 4 h)",[1]; MDJ 100 uM,450 ± 30 pg/mL
same,folding time (growth curves),"[2]; HUVEC, at concentrations below 1 mM",about 20 h
same,concentrations at which MTT dye reduction (mitochondrial activity) was maintained at a constant value,[2]; confluent HUVEC,less than 1 mM
same,"toxicity (MTT, growth curves) compared with HUVEC",[3],toxic concentrations were very close
same,degradation in vivo,[4],degraded very quickly in vivo
same,concentrations leading to a decrease in the intensity/area of Mitotracker red marking,[5],≥ 1 mM
same,"Distribution according to the phases of the cell cycle,% (18 h): Dead cells",[6]; MDJ 1 nM,13%
same,"Distribution according to the phases of the cell cycle,% (18 h): G0/G1",[6]; MDJ 1 nM,72%
same,"Distribution according to the phases of the cell cycle,% (18 h): G2/S",[6]; MDJ 1 nM,15%
same,"Marking with Acridine Orange,% (18 h)",[6]; MDJ 1 nM,6.2 ± 0.1%
same,"Distribution according to the phases of the cell cycle,% (18 h): Dead cells",[6]; MDJ 10 nM,93%
same,"Distribution according to the phases of the cell cycle,% (18 h): G0/G1",[6]; MDJ 10 nM,5%
same,"Distribution according to the phases of the cell cycle,% (18 h): G2/S",[6]; MDJ 10 nM,2%
same,"Marking with Acridine Orange,% (18 h)",[6]; MDJ 1 uM,12 ± 0.9%
same,"Distribution according to the phases of the cell cycle,% (18 h): Dead cells",[6]; MDJ 10 uM,7%
same,"Distribution according to the phases of the cell cycle,% (18 h): G0/G1",[6]; MDJ 10 uM,60%
same,"Distribution according to the phases of the cell cycle,% (18 h): G2/S",[6]; MDJ 10 uM,33%
same,"Marking with Acridine Orange,% (18 h)",[6]; MDJ 10 uM,9.0 ± 0.5%
same,"Distribution according to the phases of the cell cycle,% (18 h): Dead cells",[6]; MDJ 100 uM,8%
same,"Distribution according to the phases of the cell cycle,% (18 h): G0/G1",[6]; MDJ 100 uM,56%
same,"Distribution according to the phases of the cell cycle,% (18 h): G2/S",[6]; MDJ 100 uM,36%
same,"Marking with Acridine Orange,% (18 h)",[6]; MDJ 100 uM,6.7 ± 0.3%
same,tolerability of i.p. injections (groups C and H discharged),[7],early signs or peritonitis
same,PGE2 production by HUVEC,[8],no increase in PGE2 production
same,melanoma bodies on CAM,[9]; CAM model,dose-dependent involution
same,survival of eggs inoculated with melanoma cells,[9]; eggs with B16F10,partially recovered this survival
same,tolerability in fertilized eggs,[10],well tolerated by the eggs
same,cell proliferation and apoptosis in normal colonic mucosa and mucosa adjacent to tumors,[11]; MNNG-treated and non-MNNG animals,not associated to any significant changes in cell proliferation and apoptosis
same,Apoptotic Index (Tumor),"[11]; MNNG-treated mice, daily i.r.",0.29 ± 0.04
same,Caspase-3-Li (tumor),"[11]; MNNG-treated mice, daily i.r.",0.39 ± 0.11
same,Tumor Size,"[11]; MNNG-treated mice, daily i.r. instillation",0.56 mm^2
same,PCNA-Li,"[11]; colonic tumors, MNNG-treated mice, daily i.r.",0.41 ± 0.06
same,effect on tumor markers,[11]; i.r. administration,"mild, but significant reduction in the above tumor markers"
